Results published in US20080227724A1, “Anti-Inflammatory Agents” (CAMBRIDGE UNIVERSITY TECHNICAL SERVICES LIMITED, priority 2003, published 2008).
Bridge positions count the residues as written; N and C are the ends. Square brackets hold non-standard residues; d marks the D form. Ends that are not written are not given here.

Tests used:
TNF-alpha = experiment: Sub-lethal LPS-induced endotoxemia model, circulating TNF-alpha; format: in vivo, CD-1 mice; conditions: for block of TNF-alpha stimulation: at a suitable dose
Method: The anti-inflammatory activity of the compounds of the invention was determined in vivo using a sub-lethal LPS-induced endotoxemia model. Adult male CD-1 mice (n=6 per group) were pretreated with various agents (vehicle, compounds of the invention or positive control agents such as the steroid dexamethasone) by sub-cutaneous injection 30 minutes prior to an acute inflammatory challenge with 750 μg of bacterial lipopolysaccharide (from E. Coli 0111:B4; Sigma catalog #L-4130) via the intraperitoneal route. The vehicle in each case was 0.6% DMSO, 1% carboxymethyl cellulose, or alternatively 1% carboxymethylcellulose alone. For some of the compounds, this formulation results in a finely divided suspension or slurry rather than a clear solution. Two hours after LPS challenge, the animals were sacrificed and blood was drawn by cardiac puncture. The level of the pro-inflammatory cytokine TNF-alpha was determined using the Quantikine M ELISA (R&D Systems) for murine TNF-alpha, and reported as the mean ±standard error for each group.
By 2 hours after the LPS challenge, this had increased by more than 1,000 fold to an average of 20,000 pg/ml, representing a sensitive index of inflammatory activation. Pre-treatment with known anti-inflammatory drugs (such as the steroid dexamethasone) reduced the stimulation of TNF-alpha by up to 85-95%, depending on the dose given.
In a separate series of experiments, the compounds of the invention were administered to animals as an oral suspension, formulated in the same way as for the sub-cutaneous dosing experiments, followed 1 hour later with the LPS challenge exactly as described above. […] All five compounds were maximally active at a dose below 30 mg/kg.

[1] = test system: MCP-1 induced THP-1 cell migration; experiment: Inhibition of MCP-1 induced leukocyte migration (transwell migration assay); format: cell-based, human; conditions: inhibition of MCP-1 induced THP-1 cell migration, dose-response curves
Method: In principle, this assay consists of two chambers separated by a porous membrane. The chemoattractant is placed in the lower compartment and the cells are placed in the upper compartment. After incubation for a period at 37° C. the cells move towards the chemoattractant, and the number of cells in the lower compartment is proportional to the chemoattractant activity (relative to a series of controls). The THP-1 cell line (European Cell culture Collection) were used as the leukocyte cell population. The following procedure is used for testing the invention compounds for MCP-1 induced leukocyte migration: First, the cell suspension to be placed in the upper compartment is prepared. The THP-1 cells are pelleted by centrifugation (770×g; 4 mins) and washed with Geys Balanced Salt Solution with 1 mg/ml BSA (GBSS+BSA). This wash is then repeated, and the cells repelleted before being resuspended in a small volume of GBSS+BSA for counting, for example using a standard haemocytometer. The volume of GBSS+BSA is then adjusted depending on the number of cells present so that the cells are at final density of 4.45×10^6 cells per ml of GBSS+BSA. […] The number of cells migrated into the lower chamber under each condition can then be determined by a number of methods, including direct counting, labelling with fluorescent or radioactive markers or through the use of a vital dye. […]

[2] = format: in vitro ADME, human
Description: As an approach to identifying such stable analogs, various derivatives of (S)-3-(undec-10-enoyl)-aminoglutarimide have been tested for their stability in serum.

[3] = test system: chemokine-induced migration; experiment: Chemokine-induced leukocyte migration in vitro (prior art); format: cell-based; conditions: parental molecule (S)-3-(undec-10-enoyl)-aminoglutarimide
[4] = cited from earlier work
[5] = oral suspension 1 hour before LPS
[6] = sub-cutaneous injection 30 minutes prior to LPS

| Molecule | block of TNF-alpha stimulation (TNF-alpha; [5]) | block of TNF-alpha stimulation (TNF-alpha; [6]) | also measured |
| --- | --- | --- | --- |
| (S)-3-(2′,2′-dimethyl-dodecanoyl)amino-caprolactam [Example 12] | able to block TNF-alpha stimulation | block TNF-alpha stimulation to a similar extent to dexamethasone | (S)-enantiomer more active than the (R)-enantiomer [1]: 10-50 fold |
| C[C@@H]1C[C@H]2[C@@H]3CCC4=CC(=O)C=C[C@]4(C)[C@@]3(F)[C@@H](O)C[C@]2(C)[C@@]1(O)C(=O)CO [dexamethasone, reference compound] |  |  | reduction of the stimulation of TNF-alpha (TNF-alpha; pre-treatment, 2 hours after LPS challenge, depending on the dose given): 85-95% |
| C=CCCCCCCCCC(=O)N[C@H]1CCC(=O)NC1=O [NR58,4, (S)-3-(undec-10-enoyl)-aminoglutarimide] |  |  | stability of the aminoglutarimide ring in serum [2]: susceptible to enzymatic ring opening in serum |
| (S)-(Z)-3-(hexadec-9-enoyl)amino-caprolactam [Example 9] | able to block TNF-alpha stimulation | block TNF-alpha stimulation to a similar extent to dexamethasone |  |
| C=CCCCCCCCCC(=O)[C@@H]1CCCNC1=O [(S)-3-(undec-10-enoyl)-tetrahydropyridin-2-one] |  |  | time completely stable in human serum ([2]; human, 7 days): at least 7 days; potency compared with the parental molecule [3]: considerably reduced potency |
| (R)-3-hexadecanoylamino-caprolactam [Example 7] | able to block TNF-alpha stimulation | block TNF-alpha stimulation to a similar extent to dexamethasone |  |
| (S)-3-(2′,2′-Dimethyl-propionyl)amino-caprolactam [Example 20] | able to block TNF-alpha stimulation | block TNF-alpha stimulation to a similar extent to dexamethasone |  |
| (S)-(Z)-3-(octadec-9-enoyl)amino-caprolactam [Example 10] | able to block TNF-alpha stimulation | block TNF-alpha stimulation to a similar extent to dexamethasone |  |
| c(DCys-DGln-DIle-DTrp-DLys-DGln-DLys-DPro-DAsp-DLeu-DCys)-NH2 ([dC][dQ][dI][dW][dK][dQ][dK][dP][dD][dL][dC]-NH2; disulfide 1-11 (inferred)) [NR58-3.14.3] |  |  | half-life period of clearance from blood plasma ([4]; after intravenous injection): less than 30 minutes; oral bioavailability ([4]; in vivo, po): not orally bioavailable |
